Experimental data reported in ChEMBL document CHEMBL1201862, “PubChem BioAssay data set” (2004).
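Exposure lasted 48 hours, with cells grown in 96-well plates and compounds tested at five concentrations. GI50 is the concentration that inhibits growth by half.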 Activity calls are given as the source filed them. Rule as the data show it: active = GI50 up to about 1.1 µM and inactive = higher.

Experiments:
Test in all cases: NCI anticancer screen, dose series, 48 h
[1] = system: NCI-H226
[2] = system: UO-31
[3] = system: SW-620
[4] = system: HOP-92
[5] = system: M14
[6] = system: OVCAR-5
[7] = system: A498
[8] = system: 786-0
[9] = system: OVCAR-4
[10] = system: KM12
[11] = system: HOP-62
[12] = system: K562
[13] = system: SNB-19
[14] = system: NCI-H460
[15] = system: EKVX
[16] = system: SF-539
[17] = system: UACC-62
[18] = system: SK-MEL-2

In the case of `Oc1ccc(Cl)cc1CN1CCN(Cc2cc(Cl)ccc2O)C1`, the GI50 [1] is reported as 1.39 µM (inactive), the GI50 [2] is reported as 0.536 µM (active) and the GI50 [3] is reported as 0.547 µM (active). The GI50 [4] was 1.15 µM (inactive), the GI50 [5] was 0.553 µM (active) and the GI50 [6] was 5.09 µM (inactive). The GI50 [7] was 16 µM (inactive), the GI50 [8] was 0.203 µM (active) and the GI50 [9] was 1.3 µM (inactive). For the same compound, the GI50 [10] was 1.08 µM (active), the GI50 [11] was 0.617 µM (active) and the GI50 [12] was 1.39 µM (inactive). The GI50 [13] was 2.86 µM (inactive), the GI50 [14] was 0.218 µM (active) and the GI50 [15] was 1.57 µM (inactive). The GI50 [16] was 0.946 µM (active), the GI50 [17] was 1.85 µM (inactive) and the GI50 [18] was 1.73 µM (inactive).

In the case of `[N-]=[N+]=C1CNC(=O)NC1=O`, the GI50 [1] is reported as > 100 µM (inactive), the GI50 [2] is reported as > 100 µM (inactive) and the GI50 [3] is reported as > 100 µM (inactive). For the same compound, the GI50 [4] was > 100 µM (inactive), the GI50 [5] was 58.6 µM (inactive) and the GI50 [6] was > 100 µM (inactive). The GI50 [8] was 60.4 µM (inactive), the GI50 [9] was > 100 µM (inactive) and the GI50 [10] was > 100 µM (inactive). For the same compound, the GI50 [11] was > 100 µM (inactive), the GI50 [12] was > 100 µM (inactive) and the GI50 [13] was > 100 µM (inactive). For the same compound, the GI50 [14] was > 100 µM (inactive), the GI50 [15] was > 100 µM (inactive) and the GI50 [16] was > 100 µM (inactive). The GI50 [17] was > 100 µM (inactive) and the GI50 [18] was > 100 µM (inactive).

In the case of `CCOC(=O)CC1c2ccc(O)cc2OC(=O)C1c1ccc([N+](=O)[O-])cc1` (centres undefined), the GI50 [1] is reported as 14.2 µM (inactive), the GI50 [3] is reported as 65.6 µM (inactive) and the GI50 [4] is reported as 20.4 µM (inactive). For the same compound, the GI50 [5] was 21 µM (inactive), the GI50 [6] was 58.6 µM (inactive) and the GI50 [7] was 25.6 µM (inactive). The GI50 [8] was 41.3 µM (inactive), the GI50 [9] was 27.7 µM (inactive) and the GI50 [10] was 34.3 µM (inactive). For the same compound, the GI50 [11] was 20.2 µM (inactive), the GI50 [12] was 30.4 µM (inactive) and the GI50 [13] was 63.5 µM (inactive). The GI50 [14] was 31.3 µM (inactive), the GI50 [15] was 39.7 µM (inactive) and the GI50 [16] was 31 µM (inactive). The GI50 [17] was 37.2 µM (inactive) and the GI50 [18] was 17 µM (inactive).

`CC(C)(C)C1=C(Br)C(OC(=O)C(F)(F)F)(C(C)(C)C)OP1(=O)c1ccccc1` (centres undefined) was tested, and the GI50 [1] was 40.5 µM (inactive), the GI50 [2] was 52.5 µM (inactive) and the GI50 [4] was 36.5 µM (inactive). For the same compound, the GI50 [5] was 36.1 µM (inactive), the GI50 [6] was > 100 µM (inactive) and the GI50 [7] was 27.8 µM (inactive). The GI50 [8] was 40.2 µM (inactive), the GI50 [9] was 49.1 µM (inactive) and the GI50 [10] was 63 µM (inactive). The GI50 [11] was 25.9 µM (inactive), the GI50 [12] was 25.5 µM (inactive) and the GI50 [13] was 57.4 µM (inactive). The GI50 [14] was 35.5 µM (inactive), the GI50 [15] was 23.8 µM (inactive) and the GI50 [16] was 37.9 µM (inactive). For the same compound, the GI50 [17] was 28.8 µM (inactive) and the GI50 [18] was 29.2 µM (inactive).

In the case of `CN(Cc1cnc2nc(N)nc(N)c2n1)c1ccc(C(=O)NC(CCC(=O)NC(P(=O)(O)O)P(=O)(O)O)C(=O)O)cc1` (centres undefined), the GI50 [1] is reported as > 100 µM (inactive), the GI50 [2] is reported as 78.2 µM (inactive) and the GI50 [3] is reported as 6.84 µM (inactive). For the same compound, the GI50 [4] was > 100 µM (inactive), the GI50 [5] was 8.34 µM (inactive) and the GI50 [6] was 45.8 µM (inactive). The GI50 [8] was 7.31 µM (inactive), the GI50 [9] was > 100 µM (inactive) and the GI50 [10] was 8.34 µM (inactive). For the same compound, the GI50 [11] was 59.8 µM (inactive), the GI50 [12] was 4.21 µM (inactive) and the GI50 [13] was 9.18 µM (inactive). For the same compound, the GI50 [14] was 9.62 µM (inactive), the GI50 [15] was > 100 µM (inactive) and the GI50 [16] was 32.6 µM (inactive). For the same compound, the GI50 [17] was > 100 µM (inactive) and the GI50 [18] was 6.07 µM (inactive).

For `O=C1C2C3C=C4c5ccccc5N(c5ccccc5)C4(C2C(=O)N1c1ccc([N+](=O)[O-])cc1)[C@H]1C(=O)N(c2ccc([N+](=O)[O-])cc2)C(=O)[C@@H]31` (some centres undefined), the GI50 [1] was > 100 µM (inactive), the GI50 [2] was > 100 µM (inactive) and the GI50 [3] was > 100 µM (inactive). The GI50 [4] was > 100 µM (inactive), the GI50 [5] was > 100 µM (inactive) and the GI50 [6] was > 100 µM (inactive). For the same compound, the GI50 [7] was > 100 µM (inactive), the GI50 [8] was > 100 µM (inactive) and the GI50 [9] was > 100 µM (inactive). The GI50 [10] was > 100 µM (inactive), the GI50 [11] was > 100 µM (inactive) and the GI50 [12] was > 100 µM (inactive). For the same compound, the GI50 [13] was > 100 µM (inactive), the GI50 [14] was > 100 µM (inactive) and the GI50 [15] was > 100 µM (inactive). The GI50 [16] was > 100 µM (inactive), the GI50 [17] was > 100 µM (inactive) and the GI50 [18] was > 100 µM (inactive).
